Laboratory results published in PubChem BioAssay AID1996.
Values after ≈ are worked out from the molar mass of the structure shown. Residues, ends and D or L forms follow the SMILES beside them.

Conditions: buffer; pH 7.4; 200.0 µM
In the case of O=C(COc1cccc(Cl)c1)NCc1ccccc1, the solubility kinetic is reported as > 41.4 µg/mL.
O=C(CCS(=O)(=O)Cc1ccccc1F)NCc1ccccc1Cl showed a solubility kinetic of 4.3 µg/mL (≈ 11.6 µM).
In the case of CCC(C)(C)NC(=O)c1ccc2c(c1)OCCO2, the solubility kinetic is reported as > 37.4 µg/mL.
For CC(=O)Nc1cccc(C(=O)OCN2C(=O)c3ccccc3C2=O)c1, the solubility kinetic was 9.5 µg/mL (≈ 28.1 µM).
In the case of CN(C)S(=O)(=O)c1cccc(NC(=O)c2cc(=O)[nH]c(=O)[nH]2)c1, the solubility kinetic is reported as > 50.8 µg/mL.
Molecule O=C(COc1ccc2ccccc2c1)Nc1nccs1 has a solubility kinetic of 3.9 µg/mL (≈ 13.7 µM).
In the case of Cc1ccc(NC(=O)COCC(=O)Nc2ccc(F)cc2)cc1, the solubility kinetic is reported as 37.3 µg/mL (≈ 118 µM).
CCOC(=O)C(=O)Nc1ncc(Cl)s1 gave a solubility kinetic of 34.2 µg/mL (≈ 146 µM).
With COCc1cc(OC(=O)N(C)C)nc(-c2ccc(C)c(Cl)c2)n1 the solubility kinetic was 0.7 µg/mL (≈ 2.08 µM).
In the case of CCC(NC(=S)NCc1ccc(F)cc1)c1ccc(C(C)C)cc1 (centres undefined), the solubility kinetic is reported as < 0.4 µg/mL.
Molecule CCc1c(C)c2cc(Cl)c(O)c(CN3CCCC3)c2oc1=O has a solubility kinetic of 30.5 µg/mL (≈ 94.8 µM).
With CCOC(=O)C(=CNc1cc(OC)ccc1-n1cccc1)C(=O)OCC the solubility kinetic was 1 µg/mL (≈ 2.79 µM).
In the case of Cc1cc(C)c(S(=O)(=O)N2CCN(C3CC(=O)N(c4ccccc4Cl)C3=O)CC2)c(C)c1 (centres undefined), the solubility kinetic is reported as 16.7 µg/mL (≈ 35.1 µM).
For NC(=O)COc1ccccc1C(=O)NC12CC3CC(CC(C3)C1)C2, the solubility kinetic was 14.2 µg/mL (≈ 43.2 µM).
With Cc1cccc(S(=O)(=O)Nc2ccc3c(c2)OCCO3)c1 the solubility kinetic was 28.7 µg/mL (≈ 94 µM).
With CCOC(=O)Cn1c(=O)cc(C)c2ccccc21 the solubility kinetic was > 36.8 µg/mL.
In the case of COc1ccc(NC(=O)N2CCCCCC2)cc1OC, the solubility kinetic is reported as > 41.8 µg/mL.
With Cc1ccnc(NC(=O)Cc2ccc(F)cc2)n1 the solubility kinetic was > 36.8 µg/mL.
With O=[N+]([O-])c1cc(CSC2=NCCN2)ccc1O the solubility kinetic was 37.1 µg/mL (≈ 146 µM).
In the case of CCOC(=O)CCN1C(=O)c2ccccc2Sc2ncccc21, the solubility kinetic is reported as > 49.3 µg/mL.
CCCc1ccc(C(C)NC(=S)NC2CCCCC2)cc1 (centres undefined) showed a solubility kinetic of 1.2 µg/mL (≈ 3.94 µM).
In the case of CCOC(=O)N1CCC(NC(=O)CCc2ccccc2)CC1, the solubility kinetic is reported as > 45.7 µg/mL.
For CCN(Cc1ccncc1)C(=O)c1ccco1, the solubility kinetic was 29.4 µg/mL (≈ 128 µM).
For COc1cc(NC(=O)/C=C/c2ccccc2)c(C(=O)O)cc1OC, the solubility kinetic was > 49.1 µg/mL.
Molecule Cc1ccc2cccc(N)c2n1 has a solubility kinetic of 19 µg/mL (≈ 120 µM).
In the case of Cc1nn(C)c(C)c1NC(=O)c1ccc(Br)o1, the solubility kinetic is reported as > 44.7 µg/mL.
Work on Cc1cc(C(=O)NC2CCC(C)CC2)c(C)o1 (centres undefined) yielded a solubility kinetic of 12.6 µg/mL (≈ 53.5 µM).
With Cc1cccc(C(=O)OC(C)CN2C(C)CCCC2C)c1.Cl (centres undefined) the solubility kinetic was > 48.9 µg/mL.
For COc1cc2c(cc1OC)CN(C(=O)CCOc1ccccc1)CC2, the solubility kinetic was 30.3 µg/mL (≈ 88.8 µM).
With O=C(CCNS(=O)(=O)c1ccc(Cl)cc1)N1CCCC1 the solubility kinetic was > 47.5 µg/mL.
O=C1NC(=O)C2(CCCc3ccccc32)N1 (centres undefined) showed a solubility kinetic of 30.6 µg/mL (≈ 142 µM).
Molecule COc1cc(C(=O)NC(=S)N2CCCCCC2)cc(OC)c1OC has a solubility kinetic of 15.8 µg/mL (≈ 44.8 µM).
With Cc1ccc(C#N)c(SCc2ccccc2F)n1 the solubility kinetic was < 0.3 µg/mL.
CC(C(=O)Nc1ccc(C(F)(F)F)cc1)N(C)CC(=O)N1CCN(Cc2ccccc2)CC1.O=C(O)C(=O)O (centres undefined) showed a solubility kinetic of 52.1 µg/mL.
For CCC(=O)NCCc1nc2cc(NC(=O)Nc3ccccc3)ccc2n1C, the solubility kinetic was > 54.8 µg/mL.
Molecule ON(Cc1c(F)cccc1Cl)Cc1c(F)cccc1Cl has a solubility kinetic of 0.9 µg/mL (≈ 2.83 µM).
In the case of Cc1ccc(-c2c[n+](CC(=O)Nc3ccccc3)c3n2CCC3)cc1.[Cl-], the solubility kinetic is reported as > 55.2 µg/mL.
With CC(=O)c1cccc(NC(=O)Nc2ccccc2)c1 the solubility kinetic was 10.5 µg/mL (≈ 41.3 µM).
In the case of CCOC(=O)N1CCN(S(=O)(=O)c2ccc3c4c(cccc24)C(=O)N3)CC1, the solubility kinetic is reported as 3.6 µg/mL (≈ 9.24 µM).
With O=C(CSCc1ccccc1F)NCc1ccccc1 the solubility kinetic was > 43.4 µg/mL.
Work on Cc1ccc(N2C(=O)CC(Sc3cccs3)C2=O)cc1 (centres undefined) yielded a solubility kinetic of 35 µg/mL (≈ 115 µM).
Work on CC(=O)c1sc(-c2ccc(Cl)cc2)cc1N yielded a solubility kinetic of 1.8 µg/mL (≈ 7.15 µM).
With Cc1[nH]c(=O)[nH]c(=O)c1Sc1ccccc1[N+](=O)[O-] the solubility kinetic was 20.5 µg/mL (≈ 73.4 µM).
With Cc1ccc(CNC(=O)Cn2cccc2)cc1 the solubility kinetic was > 34.2 µg/mL.
For COc1ccc(CN2C(=O)c3cccc4cccc(c34)C2=O)cc1, the solubility kinetic was 0.9 µg/mL (≈ 2.84 µM).
For Nc1ncc2[nH]cnc2n1.O=[N+]([O-])O, the solubility kinetic was > 29.7 µg/mL.
For COCCOC(=O)c1[nH]c2c(c1C)C(=O)CC(c1ccc(OC)cc1)C2 (centres undefined), the solubility kinetic was 1.6 µg/mL (≈ 4.48 µM).
In the case of Cc1noc(C)c1COc1ccc(C(=O)N2CCCC(C(N)=O)C2)cc1 (centres undefined), the solubility kinetic is reported as > 53.6 µg/mL.
For CN(C)S(=O)(=O)N1CCC(CO)(CCc2ccccc2)CC1, the solubility kinetic was > 49 µg/mL.
CCOC(=O)/C=c1\s/c(=C(\C#N)C(N)=O)n(-c2ccccc2)c1=O showed a solubility kinetic of 8.4 µg/mL (≈ 24.5 µM).
With CN1CCN(c2ccccc2/C=N/NC(=O)c2cccnc2)CC1 the solubility kinetic was > 48.5 µg/mL.
In the case of COc1ccccc1NC(=O)CCN1C(=O)c2ccccc2S1(=O)=O, the solubility kinetic is reported as > 54.1 µg/mL.
For O=C(Nc1cnccn1)c1ccc(F)cc1Cl, the solubility kinetic was > 37.7 µg/mL.
With COc1cc(C)c(S(=O)(=O)NOCc2ccc([N+](=O)[O-])cc2)c(C)c1C the solubility kinetic was < 0.4 µg/mL.
In the case of COC(=O)Cc1ccc(NC(=S)N2CCCCC2C)cc1 (centres undefined), the solubility kinetic is reported as > 46 µg/mL.
Work on COc1cc(C2Nc3cccc4cccc(c34)N2)ccc1O yielded a solubility kinetic of 35.5 µg/mL (≈ 121 µM).
Molecule Cc1ccc(CNC(=O)C2COc3ccccc3O2)cc1 (centres undefined) has a solubility kinetic of 20.1 µg/mL (≈ 70.9 µM).
COc1ccc(CNC(=O)C2CCN(S(C)(=O)=O)CC2)cc1 showed a solubility kinetic of 45.2 µg/mL (≈ 138 µM).
For O=C(CCC1CCCN(C(=O)c2ccco2)C1)NCc1ccccc1F (centres undefined), the solubility kinetic was > 53.8 µg/mL.
With Cc1ccccc1NC(=S)N(CCN(C)C)C(C)c1cccnc1 (centres undefined) the solubility kinetic was > 51.4 µg/mL.
For CC(Sc1nccn1C)C(=O)Nc1ccc(C(N)=O)cc1 (centres undefined), the solubility kinetic was > 45.7 µg/mL.
Work on O=S(=O)(c1ccc(-c2ccon2)s1)N1CCN(c2ccccn2)CC1 yielded a solubility kinetic of 1.1 µg/mL (≈ 2.92 µM).
CC#CC[N+](C)(CC#CC)CC(=O)c1ccccc1.[Br-] gave a solubility kinetic of 30 µg/mL.
With O=[N+]([O-])c1ccc(Cl)c([N+](=O)[O-])c1 the solubility kinetic was 13.8 µg/mL (≈ 68.1 µM).
Molecule O=S(=O)(Nc1ccc2ccccc2n1)c1ccccc1Cl has a solubility kinetic of 3.3 µg/mL (≈ 10.4 µM).
For CCc1c(C)nc(N2CCN(c3ccc(F)cc3)CC2)[nH]c1=O, the solubility kinetic was 2.1 µg/mL (≈ 6.64 µM).
In the case of CSCCC(=O)Nc1nc(-c2ccccn2)cs1, the solubility kinetic is reported as > 41.9 µg/mL.
With S=C1NCN(Cc2ccco2)CN1c1ccccc1 the solubility kinetic was > 41 µg/mL.
Work on Cc1cc(Nc2cccc(Br)c2)c2ccccc2n1 yielded a solubility kinetic of 11.9 µg/mL (≈ 38 µM).
With CC(=O)c1sc(NC(=O)c2ccc(F)cc2)nc1-c1ccccc1 the solubility kinetic was < 0.4 µg/mL.
With N#C/C(=C\c1ccccc1)C(=O)OCC(=O)N1CCCC1 the solubility kinetic was > 42.6 µg/mL.
In the case of CN1C(=O)C(=O)/C(=C(/O)c2ccccc2)C1c1ccc([N+](=O)[O-])cc1 (centres undefined), the solubility kinetic is reported as > 50.7 µg/mL.
In the case of CC(=O)Nc1ccc(S(=O)(=O)N2C(C)CCCC2C)cc1 (centres undefined), the solubility kinetic is reported as > 46.6 µg/mL.
With O=C(O)/C=C\C(=O)Nc1cc(O)ccc1[N+](=O)[O-] the solubility kinetic was > 37.8 µg/mL.
With C=CCn1c(C)nnc1SCC(=O)NC1CC1 the solubility kinetic was > 37.9 µg/mL.
For CC(=O)N1CCN(CC(=O)Nc2cccc(S(=O)(=O)N3CCCCC3)c2)CC1, the solubility kinetic was > 61.3 µg/mL.
With CC(=O)Nc1ccc(S(=O)(=O)NCC(=O)OCC(=O)c2ccc[nH]2)cc1 the solubility kinetic was > 56.9 µg/mL.
For COc1ccc(CC(=O)Nc2cc(C)ccn2)cc1OC, the solubility kinetic was 27.7 µg/mL (≈ 96.7 µM).
In the case of Cc1ccc(OCc2cc(C(=O)N3CCCC3)no2)cn1, the solubility kinetic is reported as > 43.1 µg/mL.
With S=C(c1ccc(OCc2ccccc2)cc1)N1CCCC1 the solubility kinetic was < 0.6 µg/mL.
For COc1ccc(C(=O)NC(C)c2cccnc2)cc1S(=O)(=O)N(C)Cc1ccccc1 (centres undefined), the solubility kinetic was 47 µg/mL (≈ 107 µM).
For COc1cc(C(=O)N2CCN(C3CCCCC3)CC2)cc(OC)c1OC.O=C(O)C(=O)O, the solubility kinetic was > 67.9 µg/mL.
Work on Cn1c(=O)oc2cc(S(=O)(=O)N3CCc4ccccc43)ccc21 yielded a solubility kinetic of 0.5 µg/mL (≈ 1.51 µM).
Molecule CC(=O)NC(Cc1ccccc1)C(=O)NC(Cc1ccccc1)C(=O)O (stereo not drawn) (Ac-Phe-Phe-OH; configuration not given here) has a solubility kinetic of 52.4 µg/mL (≈ 148 µM).
